# Laboratory results published in PubChem BioAssay AID328 (DTP/NCI, 2004).
# Several values for one entry are separate records, joined by “and”; a condition that tells them apart may be missing. Identical values can stand only once. Inconclusive results and toxic doses are left out.
# Tested on: BDF1 mice, P388 leukemia ip, median survival T/C
# Assay: NCI In Vivo Anticancer Drug Screen. Data for tumor model P388 Leukemia (intraperitoneal) in B6D2F1 (BDF1) mice
# Details: endpoint: median survival time, higher = longer survival
# Summary of the method: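 Survival ratio, drug arm over vehicle arm, in mice with a transplanted tumour.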
# [1] = dose: 100.0 mg/kg/injection, schedule: Q01DX009 (ip), vehicle: saline with Tween-80
# [2] = dose: 200.0 mg/kg/injection, schedule: Q01DX009 (ip), vehicle: saline with Tween-80
compound,measurement,setting,value
FC(F)(F)c1nc2nc(Cl)c(Cl)nc2s1,T/C,"dose: 0.78 mg/kg/injection, schedule: Q04DX003 (ip), vehicle: other",104 % of control
same,T/C,"dose: 1.56 mg/kg/injection, schedule: Q01DX009 (ip), vehicle: other",99 % of control
same,T/C,"dose: 1.56 mg/kg/injection, schedule: Q04DX003 (ip), vehicle: other",117 % of control
same,T/C,"dose: 3.12 mg/kg/injection, schedule: Q01DX009 (ip), vehicle: other",90 % of control
same,T/C,"dose: 3.12 mg/kg/injection, schedule: Q04DX003 (ip), vehicle: other",98 % of control
same,T/C,"dose: 6.25 mg/kg/injection, schedule: Q01DX009 (ip), vehicle: other",90 % of control
same,T/C,"dose: 6.25 mg/kg/injection, schedule: Q04DX003 (ip), vehicle: other",121 % of control
same,T/C,"dose: 12.5 mg/kg/injection, schedule: Q01DX009 (ip), vehicle: other",99 % of control
same,T/C,"dose: 12.5 mg/kg/injection, schedule: Q04DX003 (ip), vehicle: other",111 % of control
CCC1=C(C[C@H]2NCCc3cc(OC)c(OC)cc32)C[C@H]2c3cc(OC)c(OC)cc3CCN2C1,T/C,"dose: 4.0 mg/kg/injection, schedule: Q04DX003 (ip), vehicle: saline",110 % of control
same,T/C,"dose: 6.7 mg/kg/injection, schedule: Q04DX003 (ip), vehicle: saline with Tween-80",113 % of control
same,T/C,"dose: 15.0 mg/kg/injection, schedule: Q04DX003 (ip), vehicle: saline with Tween-80",159 % of control
same,T/C,"dose: 16.0 mg/kg/injection, schedule: Q04DX003 (ip), vehicle: saline",158 % of control
same,T/C,"dose: 22.0 mg/kg/injection, schedule: Q04DX003 (ip), vehicle: Klucel (hydroxypropylcellulose) (HPC)",165 % of control
same,T/C,"dose: 32.0 mg/kg/injection, schedule: Q04DX003 (ip), vehicle: saline",174 % of control
same,T/C,"dose: 33.0 mg/kg/injection, schedule: Q04DX003 (ip), vehicle: Klucel (hydroxypropylcellulose) (HPC)",165 % of control
same,T/C,"dose: 33.0 mg/kg/injection, schedule: Q04DX003 (ip), vehicle: saline with Tween-80",177 % of control
same,T/C,"dose: 33.0 mg/kg/injection, schedule: Q04DX003 (ip), vehicle: saline",154 % of control
same,T/C,"dose: 50.0 mg/kg/injection, schedule: Q04DX003 (ip), vehicle: saline with Tween-80",195 % of control
same,T/C,"dose: 75.0 mg/kg/injection, schedule: Q04DX003 (ip), vehicle: saline",90 % of control
CN(C)c1ccc(/C=C2\NC(=O)NC2=O)cc1,T/C,"dose: 100.0 mg/kg/injection, schedule: Q01DX001 (ip), vehicle: saline with Tween-80",103 % of control
same,T/C,"dose: 200.0 mg/kg/injection, schedule: Q01DX001 (ip), vehicle: saline with Tween-80",97 % of control
same,T/C,"dose: 400.0 mg/kg/injection, schedule: Q01DX001 (ip), vehicle: saline with Tween-80",95 % of control
Cc1cc(C)c(N)c(Br)c1C,T/C,[1],100 % of control
same,T/C,[2],87 % of control
O=C1c2ccccc2C(=O)c2cc3cc(Cl)ccc3cc21,T/C,"dose: 100.0 mg/kg/injection, schedule: Q04DX003 (ip), vehicle: Klucel (hydroxypropylcellulose) (HPC)",90 % of control
same,T/C,"dose: 200.0 mg/kg/injection, schedule: Q04DX003 (ip), vehicle: Klucel (hydroxypropylcellulose) (HPC)",90 % of control
same,T/C,"dose: 400.0 mg/kg/injection, schedule: Q04DX003 (ip), vehicle: Klucel (hydroxypropylcellulose) (HPC)",90 % of control
COc1ccc(-c2c(C)c(C)[nH]c(=O)c2C(=O)O)c(OCc2ccccc2)c1OC,T/C,[1],99 % of control
same,T/C,"dose: 100.0 mg/kg/injection, schedule: Q04DX003 (ip), vehicle: saline with Tween-80",110 % of control
same,T/C,[2],105 % of control
same,T/C,"dose: 200.0 mg/kg/injection, schedule: Q04DX003 (ip), vehicle: saline with Tween-80",103 % of control
same,T/C,"dose: 400.0 mg/kg/injection, schedule: Q01DX009 (ip), vehicle: saline with Tween-80",103 % of control
same,T/C,"dose: 400.0 mg/kg/injection, schedule: Q04DX003 (ip), vehicle: saline with Tween-80",117 % of control
CC(=O)OC12C3CCCC1CCCC2CCC3 (stereo not given),T/C,"dose: 100.0 mg/kg/injection, schedule: Q01DX001 (ip), vehicle: Klucel (hydroxypropylcellulose) (HPC)",100 % of control
same,T/C,"dose: 200.0 mg/kg/injection, schedule: Q01DX001 (ip), vehicle: Klucel (hydroxypropylcellulose) (HPC)",100 % of control
same,T/C,"dose: 400.0 mg/kg/injection, schedule: Q01DX001 (ip), vehicle: Klucel (hydroxypropylcellulose) (HPC)",100 % of control
CCCNC1=C(N2CC2)C(=O)C(NCCC)=C(N2CC2)C1=O,T/C,"dose: 1.5 mg/kg/injection, schedule: Q01DX009 (ip), vehicle: saline",161 % of control
same,T/C,"dose: 3.0 mg/kg/injection, schedule: Q01DX009 (ip), vehicle: saline",166 % of control and 203 % of control
same,T/C,"dose: 6.0 mg/kg/injection, schedule: Q01DX009 (ip), vehicle: saline",251 % of control and 208 % of control
